Test results from patent US20090048304A1, “Crystal Form of Besipirdine Chlorhydrate, Process Preparation and Use Thereof” (UROGENE, priority 2006, published 2009).
Read-outs that look alike come from different tables or passages of the source.

Experiments:
[1] = for Stability of the crystal form in maturation studies (summary in words): all tested conditions: 25, 50, 80 °C, 8 or 72 hours, n-butyl-acetate; for Form(s) identified after maturation: maturation time 8 hours, 100 mg suspension in 2 ml n-butyl-acetate
Protocol: 100 mg suspensions of the different polymorphic forms, separated or in mixtures, in 2 ml of n-butyl-acetate, were left for maturation during 8 or 72 hours at different temperatures.

[2] = test system: bladder contractions induced by bladder irritation; conditions: in vivo, in rats; according to WO02/064126; cited from earlier work
[3] = storage conditions at room temperature, use and storing conditions of the powder

## CCCN(c1ccncc1)n1ccc2ccccc21.Cl [Form III, N-propyl-N-(4-pyridinyl)-1H-indol-1-amine chlorhydrate]
[1]
  Stability of the crystal form in maturation studies (summary in words): quickly turns into form I

## CCCN(c1ccncc1F)n1cc(C)c2ccccc21 [HP184, N-(3-fluoro-4-pyridinyl)-N-propyl-3-methyl-1H-indol-1-amine]
[2]
  Frequency of bladder contractions induced by bladder irritation: slightly decrease the frequency of bladder contractions

## CCCN(c1ccncc1)n1ccc2ccccc21.Cl [Form II, N-propyl-N-(4-pyridinyl)-1H-indol-1-amine chlorhydrate]
[1]
  Stability of the crystal form in maturation studies (summary in words): appears to be a stable form

## CCCN(c1ccncc1)n1ccc2ccccc21.Cl [I + II, N-propyl-N-(4-pyridinyl)-1H-indol-1-amine chlorhydrate]
[1]; 25 °C
  Form(s) identified after maturation: I + II
[1]; 50 °C
  Form(s) identified after maturation: I + II
[1]; 80 °C
  Form(s) identified after maturation: I + II
[1]; listed as mixture of forms I and II
  Stability of the crystal form in maturation studies (summary in words): changes towards form I

## CCCN(c1ccncc1)n1ccc2ccccc21.Cl [Form I, N-propyl-N-(4-pyridinyl)-1H-indol-1-amine chlorhydrate]
[3]
  Change of the polymorphic form with time on storage: does not evolve with time
[3]; listed as Polymorphic form I of besipirdine.HCl
  Change of the polymorphic form with time on storage: thermodynamically the most stable of all characterized forms
[1]
  Stability of the crystal form in maturation studies (summary in words): stable
[1]; listed as form I
  Stability of the crystal form in maturation studies (summary in words): thermodynamically the most stable of the three crystal forms
